In the NIST ThermoML archive (doi:10.1021/je034290l):

Legend:
[1] = excess molar enthalpy (molar enthalpy of mixing); xn = mol fraction of the nth substance listed; conditions: 101.32 kPa, Liquid, Calvet calorimetry
[2] = xn = mol fraction of the nth substance listed; conditions: 101.32 kPa, Liquid

COC=O [methyl methanoate] + CC(C)(C)O
299.15 K
Conditions | excess molar enthalpy, [1] [kcal/mol] | excess molar volume, [2] [m3/mol]
x1 = 0.0627 | – | 2.95e-07
x1 = 0.0899 | 0.158 | –
x1 = 0.1002 | – | 4.51e-07
x1 = 0.1302 | – | 5.67e-07
x1 = 0.1667 | – | 6.88e-07
x1 = 0.202 | 0.336 | –
x1 = 0.2419 | – | 8.67e-07
x1 = 0.2873 | 0.451 | –
x1 = 0.319 | – | 9.88e-07
x1 = 0.3526 | – | 1.025e-06
x1 = 0.3657 | 0.528 | –
x1 = 0.4033 | – | 1.061e-06
x1 = 0.4323 | 0.57 | –
x1 = 0.4976 | – | 1.068e-06
x1 = 0.5033 | 0.594 | –
x1 = 0.5076 | – | 1.067e-06
x1 = 0.5567 | 0.594 | –
x1 = 0.5726 | – | 1.036e-06
x1 = 0.6017 | 0.581 | –
x1 = 0.6163 | – | 9.94e-07
x1 = 0.6287 | 0.569 | –
x1 = 0.6512 | – | 9.55e-07
x1 = 0.6747 | 0.538 | –
x1 = 0.7222 | 0.491 | 8.68e-07
x1 = 0.7382 | – | 8.34e-07
x1 = 0.7721 | 0.433 | –
x1 = 0.7939 | – | 7.46e-07
x1 = 0.8111 | – | 7.04e-07
x1 = 0.8206 | 0.364 | –
x1 = 0.8697 | 0.282 | –
x1 = 0.8902 | – | 5.01e-07
x1 = 0.9187 | 0.186 | –
x1 = 0.9574 | – | 2.43e-07
x1 = 0.9598 | 0.0997 | –

CCC(=O)OC [methyl propanoate] + CC(C)(C)O
Conditions | excess molar enthalpy [kcal/mol] | excess molar volume [m3/mol]
[1], 299.15 K, x1 = 0.0603 | 0.1 | –
[1], 299.15 K, x1 = 0.1414 | 0.213 | –
[1], 299.15 K, x1 = 0.2285 | 0.317 | –
[1], 299.15 K, x1 = 0.3164 | 0.395 | –
[1], 299.15 K, x1 = 0.3971 | 0.442 | –
[1], 299.15 K, x1 = 0.4573 | 0.461 | –
[1], 299.15 K, x1 = 0.4705 | 0.464 | –
[1], 299.15 K, x1 = 0.5159 | 0.467 | –
[1], 299.15 K, x1 = 0.5343 | 0.465 | –
[1], 299.15 K, x1 = 0.5899 | 0.453 | –
[1], 299.15 K, x1 = 0.6328 | 0.435 | –
[1], 299.15 K, x1 = 0.6447 | 0.428 | –
[1], 299.15 K, x1 = 0.7116 | 0.387 | –
[1], 299.15 K, x1 = 0.7778 | 0.328 | –
[1], 299.15 K, x1 = 0.8496 | 0.244 | –
[1], 299.15 K, x1 = 0.9351 | 0.115 | –
[1], 318.15 K, x1 = 0.0486 | 0.0779 | –
[1], 318.15 K, x1 = 0.1007 | 0.153 | –
[1], 318.15 K, x1 = 0.1707 | 0.24 | –
[1], 318.15 K, x1 = 0.2374 | 0.31 | –
[1], 318.15 K, x1 = 0.3021 | 0.364 | –
[1], 318.15 K, x1 = 0.3578 | 0.4 | –
[1], 318.15 K, x1 = 0.4076 | 0.425 | –
[1], 318.15 K, x1 = 0.4404 | 0.439 | –
[1], 318.15 K, x1 = 0.4827 | 0.445 | –
[1], 318.15 K, x1 = 0.5312 | 0.45 | –
[1], 318.15 K, x1 = 0.582 | 0.441 | –
[1], 318.15 K, x1 = 0.6358 | 0.423 | –
[1], 318.15 K, x1 = 0.6986 | 0.393 | –
[1], 318.15 K, x1 = 0.7666 | 0.336 | –
[1], 318.15 K, x1 = 0.8289 | 0.272 | –
[1], 318.15 K, x1 = 0.8931 | 0.189 | –
[1], 318.15 K, x1 = 0.9582 | 0.0935 | –
[2], 303.15 K, x1 = 0.0517 | – | 1.52e-07
[2], 303.15 K, x1 = 0.1081 | – | 2.93e-07
[2], 303.15 K, x1 = 0.1525 | – | 3.88e-07
[2], 303.15 K, x1 = 0.202 | – | 4.71e-07
[2], 303.15 K, x1 = 0.2516 | – | 5.43e-07
[2], 303.15 K, x1 = 0.3129 | – | 6.1e-07
[2], 303.15 K, x1 = 0.3638 | – | 6.48e-07
[2], 303.15 K, x1 = 0.406 | – | 6.67e-07
[2], 303.15 K, x1 = 0.4603 | – | 6.78e-07
[2], 303.15 K, x1 = 0.5167 | – | 6.79e-07
[2], 303.15 K, x1 = 0.5558 | – | 6.68e-07
[2], 303.15 K, x1 = 0.6086 | – | 6.41e-07
[2], 303.15 K, x1 = 0.6546 | – | 6.07e-07
[2], 303.15 K, x1 = 0.7197 | – | 5.43e-07
[2], 303.15 K, x1 = 0.752 | – | 4.91e-07
[2], 303.15 K, x1 = 0.8122 | – | 4.15e-07
[2], 303.15 K, x1 = 0.8545 | – | 3.48e-07
[2], 303.15 K, x1 = 0.9065 | – | 2.53e-07
[2], 303.15 K, x1 = 0.9394 | – | 1.73e-07
[2], 318.15 K, x1 = 0.075 | – | 1.94e-07
[2], 318.15 K, x1 = 0.1476 | – | 3.15e-07
[2], 318.15 K, x1 = 0.1952 | – | 4.16e-07
[2], 318.15 K, x1 = 0.2636 | – | 4.98e-07
[2], 318.15 K, x1 = 0.3159 | – | 5.59e-07
[2], 318.15 K, x1 = 0.3628 | – | 6.06e-07
[2], 318.15 K, x1 = 0.4165 | – | 6.39e-07
[2], 318.15 K, x1 = 0.4931 | – | 6.48e-07
[2], 318.15 K, x1 = 0.5472 | – | 6.41e-07
[2], 318.15 K, x1 = 0.6296 | – | 6.09e-07
[2], 318.15 K, x1 = 0.6429 | – | 5.87e-07
[2], 318.15 K, x1 = 0.7013 | – | 5.41e-07
[2], 318.15 K, x1 = 0.795 | – | 4.27e-07
[2], 318.15 K, x1 = 0.8267 | – | 3.68e-07
[2], 318.15 K, x1 = 0.8822 | – | 2.81e-07
[2], 318.15 K, x1 = 0.9493 | – | 1.39e-07
